According to ChEMBL document CHEMBL1201862, “PubChem BioAssay data set” (2004):
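Following 48 hours of exposure in 96-well plates, responses at five concentrations were used to interpolate endpoints linearly. At the GI50, growth is halved.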 The source made the active and inactive calls. No stated cut-off is given here; in the data, active = GI50 up to about 1.1 µM and inactive = higher.

Columns and labels:
Assay in all cases: inhibition of tumour cell growth, NCI panel, 48 h
U-251 = system: U-251
SF-268 = system: SF-268
KM12 = system: KM12
SR = system: SR
DMS-114 = system: DMS-114
UACC-257 = system: UACC-257
EKVX = system: EKVX
COLO 205 = system: COLO 205
CCRF-CEM = system: CCRF-CEM
HL-60 = system: HL-60
SK-OV-3 = system: SK-OV-3
UO-31 = system: UO-31
RXF 393 = system: RXF 393
KM-20L2 = system: KM-20L2
NCI-H522 = system: NCI-H522
M19-MEL = system: M19-MEL
HOP-62 = system: HOP-62
A549 = system: A549
SK-MEL-5 = system: SK-MEL-5
IGROV-1 = system: IGROV-1
SK-MEL-2 = system: SK-MEL-2
Malme-3M = system: Malme-3M
HT-29 = system: HT-29
ACHN = system: ACHN
SN12C = system: SN12C
SNB-78 = system: SNB-78
MOLT-4 = system: MOLT-4
786-0 = system: 786-0
LXFL 529 = system: LXFL 529
OVCAR-8 = system: OVCAR-8
UACC-62 = system: UACC-62
LOX IMVI = system: LOX IMVI
OVCAR-4 = system: OVCAR-4
DLD-1 = system: DLD-1
OVCAR-3 = system: OVCAR-3
RXF 631 = system: RXF 631
SF-295 = system: SF-295
HCT-15 = system: HCT-15
SF-539 = system: SF-539
DMS-273 = system: DMS-273
M14 = system: M14
NCI-H226 = system: NCI-H226
NCI-H460 = system: NCI-H460
OVCAR-5 = system: OVCAR-5
TK-10 = system: TK-10
K562 = system: K562
SW-620 = system: SW-620
HCT-116 = system: HCT-116
RPMI-8226 = system: RPMI-8226
HOP-92 = system: HOP-92
SNB-19 = system: SNB-19
SNB-75 = system: SNB-75
NCI-H23 = system: NCI-H23
HCC 2998 = system: HCC 2998
HOP-18 = system: HOP-18
A498 = system: A498
CAKI-1 = system: CAKI-1
SK-MEL-28 = system: SK-MEL-28

Oc1nc2cc(Cl)ccc2nc1/C(=N\Nc1ccccc1)C(O)c1ccc(Cl)c(Cl)c1 (stereo unspecified)
GI50 (U-251): > 100 µM (inactive)
GI50 (SF-268): 47.1 µM (inactive)
GI50 (KM12): > 100 µM (inactive)
GI50 (SR): > 100 µM (inactive)
GI50 (DMS-114): > 100 µM (inactive)
GI50 (UACC-257): > 100 µM (inactive)
GI50 (EKVX): > 100 µM (inactive)
GI50 (COLO 205): > 100 µM (inactive)
GI50 (CCRF-CEM): > 100 µM (inactive)
GI50 (HL-60): > 100 µM (inactive)
GI50 (SK-OV-3): > 100 µM (inactive)
GI50 (UO-31): > 100 µM (inactive)
GI50 (RXF 393): > 100 µM (inactive)
GI50 (KM-20L2): > 100 µM (inactive)
GI50 (NCI-H522): > 100 µM (inactive)
GI50 (M19-MEL): > 100 µM (inactive)
GI50 (HOP-62): > 100 µM (inactive)
GI50 (A549): > 100 µM (inactive)
GI50 (SK-MEL-5): > 100 µM (inactive)
GI50 (IGROV-1): > 100 µM (inactive)
GI50 (SK-MEL-2): > 100 µM (inactive)
GI50 (Malme-3M): > 100 µM (inactive)
GI50 (HT-29): > 100 µM (inactive)
GI50 (ACHN): > 100 µM (inactive)
GI50 (SN12C): 36.7 µM (inactive)
GI50 (SNB-78): > 100 µM (inactive)
GI50 (MOLT-4): > 100 µM (inactive)
GI50 (786-0): > 100 µM (inactive)
GI50 (LXFL 529): > 100 µM (inactive)
GI50 (OVCAR-8): > 100 µM (inactive)
GI50 (UACC-62): > 100 µM (inactive)
GI50 (LOX IMVI): > 100 µM (inactive)
GI50 (OVCAR-4): > 100 µM (inactive)
GI50 (DLD-1): > 100 µM (inactive)
GI50 (OVCAR-3): > 100 µM (inactive)
GI50 (RXF 631): > 100 µM (inactive)
GI50 (SF-295): > 100 µM (inactive)
GI50 (HCT-15): > 100 µM
GI50 (SF-539): > 100 µM (inactive)
GI50 (DMS-273): > 100 µM (inactive)
GI50 (M14): > 100 µM (inactive)
GI50 (NCI-H226): > 100 µM (inactive)
GI50 (NCI-H460): > 100 µM (inactive)
GI50 (OVCAR-5): > 100 µM (inactive)
GI50 (TK-10): > 100 µM (inactive)
GI50 (K562): > 100 µM (inactive)
GI50 (SW-620): > 100 µM (inactive)
GI50 (HCT-116): > 100 µM (inactive)
GI50 (RPMI-8226): > 100 µM (inactive)
GI50 (HOP-92): > 100 µM (inactive)
GI50 (SNB-19): > 100 µM (inactive)
GI50 (SNB-75): > 100 µM (inactive)
GI50 (NCI-H23): > 100 µM (inactive)
GI50 (HCC 2998): > 100 µM (inactive)

COc1cc(O)c2c(c1)C(=O)c1cc(C)cc(O)c1C2=O [PHYSCION]
GI50 (U-251): > 100 µM (inactive)
GI50 (SF-268): > 100 µM (inactive)
GI50 (KM12): > 100 µM (inactive)
GI50 (SR): > 100 µM (inactive)
GI50 (DMS-114): > 100 µM (inactive)
GI50 (UACC-257): > 100 µM (inactive)
GI50 (EKVX): > 100 µM (inactive)
GI50 (COLO 205): > 100 µM (inactive)
GI50 (CCRF-CEM): > 100 µM (inactive)
GI50 (HL-60): > 100 µM (inactive)
GI50 (SK-OV-3): > 100 µM (inactive)
GI50 (UO-31): > 100 µM (inactive)
GI50 (HOP-18): 51.9 µM (inactive)
GI50 (KM-20L2): > 100 µM (inactive)
GI50 (NCI-H522): 78.5 µM (inactive)
GI50 (M19-MEL): > 100 µM (inactive)
GI50 (HOP-62): > 100 µM (inactive)
GI50 (A549): > 100 µM (inactive)
GI50 (SK-MEL-5): > 100 µM (inactive)
GI50 (A498): > 100 µM (inactive)
GI50 (IGROV-1): > 100 µM (inactive)
GI50 (SK-MEL-2): > 100 µM (inactive)
GI50 (Malme-3M): > 100 µM (inactive)
GI50 (HT-29): > 100 µM (inactive)
GI50 (ACHN): > 100 µM (inactive)
GI50 (SN12C): > 100 µM (inactive)
GI50 (SNB-78): > 100 µM (inactive)
GI50 (MOLT-4): > 100 µM (inactive)
GI50 (LXFL 529): > 100 µM (inactive)
GI50 (OVCAR-8): > 100 µM (inactive)
GI50 (UACC-62): > 100 µM (inactive)
GI50 (LOX IMVI): > 100 µM (inactive)
GI50 (OVCAR-4): > 100 µM (inactive)
GI50 (DLD-1): > 100 µM (inactive)
GI50 (OVCAR-3): > 100 µM (inactive)
GI50 (RXF 631): > 100 µM (inactive)
GI50 (SF-295): > 100 µM (inactive)
GI50 (SF-539): > 100 µM (inactive)
GI50 (M14): > 100 µM (inactive)
GI50 (NCI-H226): > 100 µM (inactive)
GI50 (NCI-H460): > 100 µM (inactive)
GI50 (OVCAR-5): > 100 µM (inactive)
GI50 (CAKI-1): > 100 µM (inactive)
GI50 (K562): > 100 µM (inactive)
GI50 (SW-620): > 100 µM (inactive)
GI50 (HCT-116): > 100 µM (inactive)
GI50 (RPMI-8226): > 100 µM (inactive)
GI50 (SK-MEL-28): > 100 µM (inactive)
GI50 (SNB-19): > 100 µM (inactive)
GI50 (SNB-75): 93.8 µM (inactive)
GI50 (NCI-H23): > 100 µM (inactive)
GI50 (HCC 2998): > 100 µM (inactive)
